One data set concerns HIV-1 replication. As to the kind of experiment: HIV p24 ELISA in culture medium of U1 cells (HIV replication). It counts as cell-based. To be noted: 24 hours; for HIV p24 level in culture media, mean (Fig 2): percentage of vehicle control (100%), EVG 5 μM, COBI 2 μM, ethanol 20 mM; for HIV p24 level in culture media, mean (Fig 5): percentage of vehicle control, MK-571 50 μM, PSC-833 5 μM; for effect on HIV p24 levels compared to control (in words): Fig 5. As for the experimental part: (§1) HIV-infected U937 cell line—the U1 cells were obtained through the NIH AIDS Reagent Program (Germantown, MD). U1 cells were cultured in Roswell Park Memorial Institute (RPMI) 1640 media (Corning Inc, Tewksbury, MA) supplemented with 10% fetal bovine serum (Atlanta biologicals, Atlanta, GA), 1% L-glutamine, nonessential amino acid solution, sodium bicarbonate, and penicillin-streptomycin solution. Cells were plated at 0.9x10^6 cells/well of 6-well plates and were differentiated into macrophages with 100 nM Phorbol 12-myristate 13-acetate (PMA) for 72 hours prior to treatment. On the day of experiment, medium was removed and cells were washed twice with PBS and treated with media containing clinically relevant concentrations of (a) EVG (5 μM), (b) EVG+COBI (2 μM), (c) EVG+ethanol (20 mM), (d) EVG+COBI+ethanol. Ethanol-treated plates were placed in an incubator that humidified with 20 mM ethanol to prevent any loss of ethanol due to evaporation.
(§2) At predetermined time points (0.5, 1, 3, 6, 12, and 24 hours), cells were collected for concentration-time profile experiments and medium was collected for HIV p24 measurement. At each time point, cells were washed twice with PBS and incubated with 400 μL of cold Radioimmunoprecipitation assay (RIPA) buffer for 10 minutes and the cell lysates were collected.
Influence of the combination of drugs on HIV replication was determined by measurement of HIV p24 levels in the cell culture medium. […] The concentration of p24 in the samples was quantitated by comparing with standards’ absorbance values and reported in percentage of control. The vehicle-treated samples were used as control and set as 100%.
On the technique in general: In an ELISA, binding on a coated surface is turned into a signal by an enzyme label.

In the next data set the test system is MRP1. The data set is described as follows: In-Cell Western analysis of MRP1 protein expression in U1 cells. It counts as cell-based. The settings on record: 24 hours; for change in MRP1 expression compared to control (in words): U1 cells; for MRP1 fluorescence signal intensity, mean (Fig 3B): relative response compared to vehicle controls, normalized to β-actin. As for the experimental part:
(§3) Detecting low levels of protein expression in native cells using traditional Western blotting can be difficult and therefore some studies successfully used In-Cell Western blotting (ICW) to quantify minor alterations in protein expression. We used manufacturer recommended (LI-COR Biosciences, NE) protocol in this study to perform ICW. U1 cells (0.03x10^6) were plated in sterile 96-well plates and differentiated with 100 nM PMA for 72 hours at 37°C in a humidified incubator while maintaining 5% CO2 air flow. On the day of treatment, each well was flushed with sterile PBS (250 μl) followed by addition of a 250 μl RPMI media containing various combinations of drugs previously mentioned. These plates were incubated for 24 hours prior to fixation. Medium from each well was removed by careful aspiration and cells were immediately fixed by addition of cold (-20°C) methanol (200 μl) followed by incubation of the plate at ambient temperature for 10 minutes with gentle shaking. Following incubation, methanol was carefully removed and wells were gently rinsed thrice with PBS (200 μl). After the last rinse, blocking was done by adding a 150 μl of Li-Cor blocking buffer and incubating the plate at room temperature with gentle shaking for 1.5 hours. Meanwhile, the primary antibodies were diluted in Li-Cor Odyssey blocking buffer using following dilutions: 3A4 (Rabbit Pab, Abcam # ab3572) 1: 200; MRP1 (mouse mab, Millipore # MAB4100) 1:50; MDR1(mouse mab, Millipore # MAB4334) 1:50; β-Actin (Mouse mAb Cell Signaling # 3700) 1:2000; β-Actin (Rabbit mAb Cell Signaling # 4970) 1:200. After blocking, 50 μl of desired antibody added to test wells and incubated overnight at 4°C with gentle shaking. On the following day, wells were washed five times with 200 μl PBS containing Tween-20 (0.1%) for 5 minutes at room temperature with gentle shaking. Secondary antibodies, goat anti-Mouse Mab (Li-Cor # 926–68170) and goat anti-Rabbit Mab (Li-Cor # 827–08365) were diluted in 1:1000 ratio in blocking buffer (0.2% -Tween-20, 0.01% SDS). After the final wash, wells were incubated with 50 μl of secondary antibody mixture for 1 hour in the dark at room temperature. After five washes, plates were scanned using Li-Cor Odyssey® SA and analyzed by using Image Studio V4.0 software (LI-COR Biosciences, NE). Background was subtracted from control wells and target protein signal intensities from triplicate wells were normalized to their respective β-actin intensities. Signal intensities were expressed as percent of relative responses (mean ± standard errors of mean) compared to vehicle controls.

In data set [1] the test system is U1 cells. As to the kind of experiment: Intracellular elvitegravir concentration-time profile (cellular pharmacokinetics) in U1 cells, LC-MS/MS. In kind it is in vitro ADME. The settings on record: for cellular EVG concentration, mean: U1 cells. As for the experimental part: as §1, §2
(§4) A previously reported LC-MS/MS method was used to quantitate EVG in cell lysates, culture medium, and plasma samples used in this study. Calibrants (0.003, 0.006, 0.013, 0.025, 0.05, 0.1, 0.15, 0.25, 0.5, and 1 μM) were prepared by serial dilution approach with the corresponding working solutions. EVG extraction from the calibrants and study samples was performed by adding 3-volumes of cold acetonitrile which contained a 138 nM ritonavir (RTV) as internal standard (IS). All samples were centrifuged at 8000 rpm for 10 minutes at 4°C and clear supernatants were transferred into vails with low-volume inserts for LC-MS/MS analysis. Samples (5 μL) were injected onto a Waters Xterra® MS C18 Column (125Å, 3.5 μ, 4.6 X 50 mm) (Waters Corporation, Milford, MA) attached to a Shimadzu Nexera HPLC system coupled with a tandem mass spectrometer (Triple Quad 5500 from AB SCIEX, Framingham, MA) with electron spray ionization in positive mode. Data was acquired and analyzed with the Analyst software package (ver.1.6.2, AB SCIEX, Framingham, MA). Concentrations were quantified by the Quantitative Analysis module (Analyst ver 1.6.2, AB SCIEX, Framingham, MA) from a standard curve fitted with a linear-regression model with a weighting factor of 1/x^2.
(§5) The concentration-time profiles were analyzed by non-compartmental modeling using Phoenix WinNonlin 6.4 (Certara L.P., Princeton, NJ). Area under the curve (AUCtot) was calculated by the log trapezoidal rule by log-linear regression. The maximum concentration achieved (Cmax) and the time to maximum concentration (Tmax) were determined from the concentration-time profiles. Effect of ethanol on EVG AUCtot and Cmax were compared using unpaired t test with Welch's correction. Tmax values were compared using Wilcoxon rank-sum test. All other data involving more than two groups were compared by one way ANOVA and multiple comparisons were performed by Tukey’s post hoc test. ANOVA data was presented along with multiplicity adjusted p values for each comparison. All the statistical analyses were done by Prism 6 (GraphPad Software, La Jolla, CA). A p-value ≤ 0.05 among treatment groups was considered significant.

Experiment in data set [2]: as above
The settings on record: human, intracellular EVG in U1 cells. In kind it is in vitro ADME. As for the experimental part:
as §1, §2, §4, §5

The next data set deals with MDR1. The data set is described as follows: In-Cell Western analysis of MDR1 protein expression in U1 cells. It counts as cell-based. To be noted: 24 hours; for change in MDR1 expression compared to control (in words): U1 cells; for MDR1 fluorescence signal intensity, mean (Fig 3C): relative response compared to vehicle controls, normalized to β-actin. As for the experimental part:
as §3

For a further data set, the system named is CYP3A4. The data set is described as follows: In-Cell Western analysis of CYP3A4 protein expression in U1 cells. In kind it is cell-based. The settings on record: 24 hours; for change in CYP3A4 expression compared to control (in words): U1 cells; for CYP3A4 fluorescence signal intensity, mean (Fig 3A): relative response compared to vehicle controls, normalized to β-actin. As for the experimental part: as §3

The subject of data set [3] is U1 cells. As to the kind of experiment: Intracellular elvitegravir concentration in the presence of MRP1 or MDR1 inhibitors and cobicistat + ethanol. It counts as in vitro ADME. To be noted: cells co-treated with EVG+COBI+ethanol (control), 24 hours. As for the experimental part: as §2
Details of data set [4]: method as in PMID 10817729. The settings on record: ethanol 0.7 g/kg with 600 mg of abacavir, 25 male HIV-infected individuals; cited from earlier work.

The structures appear in SMILES notation.

Broadly, the Cmax is the maximum level reached in the sampled fluid or tissue. What is called Tmax is the time from dosing to the highest level. For `COc1cc2c(cc1Cc1cccc(Cl)c1F)c(=O)c(C(=O)O)cn2[C@H](CO)C(C)C` [EVG, elvitegravir], in the data set with HIV-1 replication (U1 cells, compared to vehicle), the “reduction of HIV p24 levels” value was 30%. In addition, the “HIV p24 level in culture media, mean (Fig 2)” value in the data set on HIV-1 replication is reported as 70.3%. Also, in the data set with MRP1, the “change in MRP1 expression compared to control (in words)” value is on record as “no effect”. Besides, the “MRP1 fluorescence signal intensity, mean (Fig 3B)” value in the data set with MRP1 stood at 100%. Besides, the “cellular EVG concentration, mean” value in the data set with U1 cells [1] (0.5 hours) is 41.39 μM/mg of protein; in the data set with U1 cells [1] (1 hour), 51.13 μM/mg of protein; in the data set with U1 cells [1] (3 hours) it was 59.00 μM/mg of protein; in the data set with U1 cells [1] (6 hours), 66.27 μM/mg of protein; in the data set on U1 cells [1] (12 hours), 78.01 μM/mg of protein; with U1 cells [1] (24 hours) it was 72.02 μM/mg of protein. The compound also yielded an AUCtot in the data set on U1 cells [1] (intracellular EVG in PMA-differentiated U1 cells, 0 to 24 hours, EVG 5 μM, COBI 2 μM, ethanol 20 mM, mean ± SEM) of 1733 ± 122 μMXh/mg. The “mean exposure (AUCtot)” value in the data set on U1 cells [1] (intracellular EVG in U1 cells) is 1733 ± 122 µM·h/mg. For the same compound, the highest level in data set [2] (EVG 5 μM, COBI 2 μM, ethanol 20 mM, mean ± SEM) (Cmax at 5 μM) was 82 ± 4 µM. Also, in data set [2] (median (range)), the time of peak concentration (Tmax) at 5 μM stood at 12 h. For the same compound, the “change in MDR1 expression compared to control (in words)” value in the data set with MDR1 was “no influence”. Besides, the “MDR1 fluorescence signal intensity, mean (Fig 3C)” value in the data set with MDR1 was 91.21%. Also, the “change in CYP3A4 expression compared to control (in words)” value with CYP3A4 was “no change”. In the data set on CYP3A4, the “CYP3A4 fluorescence signal intensity, mean (Fig 3A)” value was determined as 104.7%.
Consider `CCO` [EtOH, ethanol], for which the “increase in HIV p24 levels compared to vehicle control” value in the data set with HIV-1 replication (U1 cells) was determined as 35%. For the same compound, in the data set on HIV-1 replication, the “HIV p24 level in culture media, mean (Fig 2)” value is 135.4% and the “HIV p24 level in culture media, mean (Fig 5)” value (from here on “HIV p24 level … (Fig 5)”) is given as 135.4%. In addition, in the data set with MRP1, the “change in MRP1 expression compared to control (in words)” value was “upregulated” and the “MRP1 fluorescence signal intensity, mean (Fig 3B)” value was 167.2%. For the same compound, in the data set on MDR1, the “change in MDR1 expression compared to control (in words)” value was “significant induction” and the “MDR1 fluorescence signal intensity, mean (Fig 3C)” value was 128%. In the data set with CYP3A4, the “change in CYP3A4 expression compared to control (in words)” value was “significant induction” and the “CYP3A4 fluorescence signal intensity, mean (Fig 3A)” value is on record as 167.5%.
Regarding `CN(C)C(=O)CCSC(SCCC(=O)O)c1cccc(/C=C/c2ccc3ccc(Cl)cc3n2)c1` (centres unmarked) [MK-571], the “effect on HIV p24 levels compared to control (in words)” value with HIV-1 replication (U1 cells) is on record as “did not show any effect”. Moreover, the “HIV p24 level … (Fig 5)” value with HIV-1 replication was found to be 104.1%.
`C/C=C/C[C@@H](C)C(=O)[C@H]1C(=O)N[C@@H](C(C)C)C(=O)N(C)CC(=O)N(C)[C@@H](CC(C)C)C(=O)N[C@@H](C(C)C)C(=O)N(C)[C@@H](CC(C)C)C(=O)N[C@@H](C)C(=O)N[C@H](C)C(=O)N(C)[C@@H](CC(C)C)C(=O)N(C)[C@@H](CC(C)C)C(=O)N(C)[C@@H](C(C)C)C(=O)N1C` [PSC-833]: the “effect on HIV p24 levels compared to control (in words)” value with HIV-1 replication (U1 cells) is listed as “did not show any effect”. For the same compound, the “HIV p24 level … (Fig 5)” value with HIV-1 replication is given as 98.57%. Further, the “effect on intracellular EVG concentration (in words)” value in the data set with U1 cells [3] was “no significant effect”.
On to `Nc1nc(NC2CC2)c2ncn([C@H]3C=C[C@@H](CO)C3)c2n1` [abacavir], for which, in data set [4], the “increase in half-life with ethanol consumption” value is given as 26%, the “increase in maximum concentration with ethanol consumption” value was 15% and the “increase in total exposure with ethanol consumption” value is given as 41%.

Values taken from paper PMC5322882, “Alterations in cellular pharmacokinetics and pharmacodynamics of elvitegravir in response to ethanol exposure in HIV-1 infected monocytic (U1) cells” (PLoS ONE, 2017).
